Experiments:
Type in all cases: in vivo, human
[1] = tested on: patients with fasting triglyceride levels ≥500 mg/dL; test: Lipoprotein particle size by NMR spectroscopy in the clinical study; conditions: for VLDL particle size, placebo-adjusted median percent change from baseline: Hodges-Lehmann median; for HDL particle size, median change from baseline / LDL particle size, median change from baseline / VLDL particle size, median change from baseline: baseline to study end; for HDL particle size, end-of-treatment value (median) / LDL particle size, end-of-treatment value (median) / VLDL particle size, end-of-treatment value (median): study end
Procedure: (§1) Lipoprotein particle concentrations and sizes were measured with nuclear magnetic resonance spectroscopy in the above described clinical trial. Lipoprotein particle size and concentration parameters were obtained from fasting blood samples. Lipoprotein particle size and concentrations are measured by nuclear magnetic resonance (NMR) spectroscopy at LipoScience, Inc. (Raleigh, N.C.) using the LipoProfile-3 algorithm. VLDL, LDL, and HDL subclasses of different size were quantified from the amplitudes of their spectroscopically-distinct lipid methyl group NMR signals.
(§2) Subjects with missing baseline or Week 12 measurements, due to either missing laboratory samples or un-reportable values, were excluded from this analysis. The median difference of each lipoprotein particle variable (percent change from baseline) between each AMR101 treatment group and the placebo group was evaluated with a nonparametric test using the Hodges-Lehmann medians of the differences between treatment groups and the Wilcoxon rank-sum test (significance level 0.05). All statistical analyses were carried out using SAS 9.2 software.

[2] = tested on: patients with fasting triglyceride levels ≥500 mg/dL; test: 12-week placebo-controlled double-blind clinical study: fasting lipid parameters
Procedure: A multi-center, placebo-controlled randomized, double-blind, 12-week study with an open-label extension was performed to evaluate the efficacy and safety of AMR101 in patients with fasting triglyceride levels ≥500 mg/dL. The primary objective of the study was to determine the efficacy of AMR101 2 g daily and 4 g daily, compared to placebo, in lowering fasting TG levels in patients with fasting TG levels ≥500 mg/dL and ≤1500 mg/dL (≥5.65 mmol/L and ≤16.94 mmol/L). The population for this study was men and women (women of childbearing potential needed to be on contraception or practice abstinence) >18 years of age with a body mass index ≤45 kg/m^2 who were not on lipid-altering therapy or are currently on lipid-altering therapy. Patients currently on statin therapy (with or without ezetimibe) were evaluated by the investigator as to whether this therapy could be safely discontinued at screening, or if it should be continued. If statin therapy (with or without ezetimibe) was to be continued, dose(s) must be stable for ≥4 weeks prior to randomization. Patients taking non-statin, lipid-altering medications (niacin >200 mg/day, fibrates, fish oil, other products containing omega-3 fatty acids, or other herbal products or dietary supplements with potential lipid-altering effects), either alone or in combination with statin therapy (with or without ezetimibe), must have been able to safely discontinue non-statin, lipid-altering therapy at screening. Approximately 240 patients were sought to be randomized at approximately 50 centers in North America, South America, Central America, Europe, India, and South Africa. The study was be a 58- to 60-week, Phase 3, multi-center study consisting of 3 study periods: (1) A 6- to 8-week screening period that included a diet and lifestyle stabilization and washout period and a TG qualifying period; (2) A 12-week, double-blind, randomized, placebo-controlled treatment period; and (3) A 40-week, open-label, extension period. After confirmation of qualifying fasting TG values, eligible patients entered a 12-week, randomized, double-blind treatment period. At Visit 4 (Week 0), patients were randomly assigned to 1 of the following treatment groups: • AMR101 2 g daily, • AMR101 4 g daily, or • Placebo. Eligible patients were randomly assigned at Visit 4 (Week 0) to receive orally AMR101 2 g daily, AMR101 4 g daily, or placebo for the 12-week double-blind treatment period. AMR101 was provided in 1 g liquid-filled, oblong, gelatin capsules. The matching placebo capsule was filled with light liquid paraffin and contained 0 g of AMR101. During the double-blind treatment period, patients took 2 capsules (AMR101 or matching placebo) in the morning and 2 in the evening for a total of 4 capsules per day. Patients in the AMR101 2 g/day treatment group received 1 AMR101 1 g capsule and 1 matching placebo capsule in the morning and in the evening. Patients in the AMR101 4 g/day treatment group received 2 AMR101 1 g capsules in the morning and evening. The primary efficacy variable for the double-blind treatment period was percent change in TG from baseline to Week 12 endpoint. […]

[3] = tested on: patients with fasting triglyceride levels ≥500 mg/dL; test: Lipoprotein particle concentration by NMR spectroscopy in the clinical study; conditions: 2 g/day vs placebo
Procedure: as §1
Concentrations of the following subclasses of lipoproteins were analyzed in this study: small LDL (18.0-20.5 nm), large LDL (20.5-23.0 nm), intermediate-density lipoprotein (IDL; 23.0-29.0 nm), large high-density lipoprotein (HDL; 9.4-14.0 nm), medium HDL (8.2-9.4 nm), small HDL (7.3-8.2 nm), large very-low-density lipoprotein (VLDL; >60 nm), medium VLDL (42-60 nm), and small VLDL (29-42 nm).
as §2

## CC/C=C\C/C=C\C/C=C\C/C=C\C/C=C\CCCC(=O)OCC [AMR101, ethyl eicosapentaenoate]
[1]; 2 g/day vs placebo
  VLDL particle size, placebo-adjusted median percent change from baseline: −4.0%
[1]; 2 g/day, n = 63
  HDL particle size, median change from baseline: 0.0%
  LDL particle size, median change from baseline: 0.0%
  VLDL particle size, median change from baseline: −3.4%
  HDL particle size, end-of-treatment value (median): 8.9 nm
  LDL particle size, end-of-treatment value (median): 19.6 nm
  VLDL particle size, end-of-treatment value (median): 60.6 nm
[1]; 4 g/day vs placebo
  VLDL particle size, placebo-adjusted median percent change from baseline: −8.6%
[1]; 4 g/day, n = 60
  LDL particle size, median change from baseline: 0.0%
  LDL particle size, end-of-treatment value (median): 19.7 nm
[1]; 4 g/day, n = 61
  HDL particle size, median change from baseline: 1.1%
  VLDL particle size, median change from baseline: −8.6%
  HDL particle size, end-of-treatment value (median): 8.9 nm
  VLDL particle size, end-of-treatment value (median): 55.7 nm
[2]; 2 g/day vs placebo, 12 weeks
  Apo B median percent change, AMR101 2 g/day vs. Placebo: −2.6%
  HDL-C median percent change, AMR101 2 g/day vs. Placebo: 1.5%
  LDL-C median percent change, AMR101 2 g/day vs. Placebo: 5.2%
  Lp-PLA2 median percent change, AMR101 2 g/day vs. Placebo: −5.1%
  Non-HDL-C median percent change, AMR101 2 g/day vs. Placebo: −8.1%
  TC median percent change, AMR101 2 g/day vs. Placebo: −6.8%
  TG median percent change, AMR101 2 g/day vs. Placebo: −19.7%
  VLDL-C median percent change, AMR101 2 g/day vs. Placebo: −15.3%
  VLDL-TG median percent change, AMR101 2 g/day vs. Placebo: −17.3%
[2]; 2 g/day, 12 weeks
  Apo B median percent change from baseline: 2.1%
  HDL-C median percent change from baseline: 0.0%
  LDL-C median percent change from baseline: −2.5%
  Lp-PLA2 median percent change from baseline: −5.1%
  Non-HDL-C median percent change from baseline: 0.0%
  TC median percent change from baseline: 0.7%
  TG median percent change from baseline: −7.0%
  VLDL-C median percent change from baseline: 0.0%
  VLDL-TG median percent change from baseline: −6.4%
[2]; 4 g/day vs placebo, 12 weeks
  Apo B median percent change, AMR101 4 g/day vs. Placebo: −8.5%
  HDL-C median percent change, AMR101 4 g/day vs. Placebo: −3.6%
  LDL-C median percent change, AMR101 4 g/day vs. Placebo: −2.3%
  Lp-PLA2 median percent change, AMR101 4 g/day vs. Placebo: −13.6%
  Non-HDL-C median percent change, AMR101 4 g/day vs. Placebo: −17.7%
  TC median percent change, AMR101 4 g/day vs. Placebo: −16.3%
  TG median percent change, AMR101 4 g/day vs. Placebo: −33.1%
  VLDL-C median percent change, AMR101 4 g/day vs. Placebo: −28.6%
  VLDL-TG median percent change, AMR101 4 g/day vs. Placebo: −25.8%
[2]; 4 g/day, 12 weeks
  Apo B median percent change from baseline: −3.8%
  HDL-C median percent change from baseline: −3.5%
  LDL-C median percent change from baseline: −4.5%
  Lp-PLA2 median percent change from baseline: −17.1%
  Non-HDL-C median percent change from baseline: −7.7%
  TC median percent change from baseline: −7.3%
  TG median percent change from baseline: −26.6%
  VLDL-C median percent change from baseline: −19.5%
  VLDL-TG median percent change from baseline: −25.2%
[2]; 4 g/day, previously reported, stated as reduction
  Reduction of median apolipoprotein B compared with placebo: 8.5%
[3]; Hodges-Lehmann median
  Small LDL particle concentration, placebo-adjusted median percent change from baseline: −12.8%
  Total HDL particle concentration, placebo-adjusted median percent change from baseline: −3.0%
  Total LDL particle concentration, placebo-adjusted median percent change from baseline: −1.1%
[3]; stated as reduction
  Reduction of small LDL particle concentration: 12.8%

From patent US11291643B2, “Methods of treating hypertriglyceridemia” (Amarin Pharmaceuticals Ireland Limited, priority 2011, dated 2022)
